Holding throughout (assay type): functional
Experiment [1] deals with Candida albicans. Description: Antifungal activity against Candida albicans SC5314 assessed as inhibition of fungal growth by CLSI M27-A3 guidelines based method.
Experiment [2] has as its system Candida albicans. Description: Antifungal activity against Candida albicans GIM 2.194 assessed as inhibition of fungal growth by CLSI M27-A3 guidelines based method.
A further experiment has as its system Candida tropicalis. Description: Antifungal activity against Candida tropicalis GIM 2.183 assessed as inhibition of fungal growth by CLSI M27-A3 guidelines based method.
The subject of the next experiment is Candida parapsilosis. Description: Antifungal activity against Candida parapsilosis GIM 2.190 assessed as inhibition of fungal growth by CLSI M27-A3 guidelines based method. Particulars: Lodderomyces parapsilosis.
For a further experiment, the system named is Nakaseomyces glabratus. The experiment in a line: Antifungal activity against Candida glabrata assessed as inhibition of fungal growth by CLSI M27-A3 guidelines based method.
The next experiment deals with Pichia kudriavzevii. The experiment in a line: Antifungal activity against Candida krusei GIM 2.1 assessed as inhibition of fungal growth by CLSI M27-A3 guidelines based method.
Another experiment has as its system Cryptococcus neoformans. The experiment in a line: Antifungal activity against Cryptococcus neoformans CGMCC 2.3161 assessed as inhibition of fungal growth by CLSI M27-A3 guidelines based method.
The test system of another experiment is Aspergillus fumigatus. Description: Antifungal activity against Aspergillus fumigatus cgmcc 3.7795 assessed as inhibition of fungal growth by CLSI M27-A3 guidelines based method.
For experiment [3], the system named is Candida albicans. The experiment in a line: Antifungal activity against fluconazole-resistant Candida albicans CaR assessed as inhibition of fungal growth by CLSI M27-A3 guidelines based method.
Experiment [4] deals with Candida albicans. Description: Antifungal activity against fluconazole and iodiconazole resistant Candida albicans clinical isolate 17# assessed as inhibition of fungal growth by CLSI M27-A3 guidelines based method.
Experiment [5] deals with Candida albicans. Description: Antifungal activity against fluconazole-resistant Candida albicans clinical isolate 901 assessed as inhibition of fungal growth by CLSI M27-A3 guidelines based method.
In experiment [6] the test system is Candida albicans. The experiment in a line: Antifungal activity against fluconazole-resistant Candida albicans clinical isolate 904 assessed as inhibition of fungal growth by CLSI M27-A3 guidelines based method.
The subject of experiment [7] is Candida albicans. Description: Antifungal activity against fluconazole-resistant Candida albicans clinical isolate 632 assessed as inhibition of fungal growth by CLSI M27-A3 guidelines based method.
Experiment [8] concerns Candida albicans. The experiment in a line: Antifungal activity against fluconazole-resistant Candida albicans clinical isolate 100 assessed as inhibition of fungal growth by CLSI M27-A3 guidelines based method.
Experiment [9] relates to Candida albicans. Description: Antifungal activity against fluconazole-resistant Candida albicans clinical isolate 103 assessed as inhibition of fungal growth by CLSI M27-A3 guidelines based method.
Experiment [10] has as its system Candida albicans. Description: Antifungal activity against fluconazole-resistant Candida albicans clinical isolate 311 assessed as inhibition of fungal growth by CLSI M27-A3 guidelines based method.

The values that follow come from ChEMBL document CHEMBL6092180 (Eur J Med Chem, 2024).

SMILES strings stand for the structures. ≈ marks a conversion by molar mass, not a printed value.

As for `C[C@@H](N(C)Cc1ccc(C#Cc2cc(F)c(Cl)cc2F)cc1)[C@](O)(Cn1cncn1)c1ccc(F)cc1F`, the MIC80 is 0.013 µg/mL (≈ 0.0239 µM) in the experiment on Candida albicans [1]; 0.05 µg/mL (≈ 0.0921 µM) in the experiment on Candida albicans [2]; 0.006 µg/mL (≈ 0.0111 µM) in the experiment on Candida tropicalis; 0.006 µg/mL (≈ 0.0111 µM) in the experiment on Candida parapsilosis; 0.05 µg/mL (≈ 0.0921 µM) in the experiment with Nakaseomyces glabratus; 0.05 µg/mL (≈ 0.0921 µM) with Pichia kudriavzevii. Besides, the MIC80 in the experiment on Cryptococcus neoformans was 0.013 µg/mL (≈ 0.0239 µM); with Aspergillus fumigatus, 0.2 µg/mL (≈ 0.368 µM); with Candida albicans [3], 0.5 µg/mL (≈ 0.921 µM); in the experiment with Candida albicans [4] it was 0.5 µg/mL (≈ 0.921 µM); with Candida albicans [5], 4 µg/mL (≈ 7.37 µM); in the experiment on Candida albicans [6], 32 µg/mL (≈ 58.9 µM). Moreover, the MIC80 in the experiment on Candida albicans [7] was 4 µg/mL (≈ 7.37 µM); in the experiment on Candida albicans [8], 4 µg/mL (≈ 7.37 µM); in the experiment on Candida albicans [9], 8 µg/mL (≈ 14.7 µM); in the experiment with Candida albicans [10] it was 32 µg/mL (≈ 58.9 µM).

With `CN(Cc1ccc(C#Cc2ccc(C=O)cc2)cc1)CC(O)(Cn1cncn1)c1ccc(F)cc1F` (stereo unspecified), the MIC80 in the experiment on Candida albicans [1] came to 0.013 µg/mL (≈ 0.0267 µM); in the experiment with Candida albicans [2], 0.013 µg/mL (≈ 0.0267 µM); with Candida tropicalis, 0.013 µg/mL (≈ 0.0267 µM); with Candida parapsilosis it was 0.013 µg/mL (≈ 0.0267 µM); with Nakaseomyces glabratus, 0.1 µg/mL (≈ 0.206 µM); in the experiment with Pichia kudriavzevii it was 0.05 µg/mL (≈ 0.103 µM). Also, the MIC80 in the experiment on Cryptococcus neoformans came to 0.05 µg/mL (≈ 0.103 µM).

As to `CN(Cc1ccc(C#Cc2ccc(F)c(F)c2)cc1)CC(O)(Cn1cncn1)c1ccc(F)cc1F` (stereo unspecified), the MIC80 in the experiment with Candida albicans [1] came out at 0.006 µg/mL (≈ 0.0121 µM); in the experiment with Candida albicans [2] it was 0.006 µg/mL (≈ 0.0121 µM); in the experiment with Candida tropicalis it was 0.006 µg/mL (≈ 0.0121 µM); in the experiment with Candida parapsilosis, 0.006 µg/mL (≈ 0.0121 µM); in the experiment with Nakaseomyces glabratus, 0.03 µg/mL (≈ 0.0607 µM); with Pichia kudriavzevii, 0.01 µg/mL (≈ 0.0202 µM). Also, the MIC80 with Cryptococcus neoformans was found to be 0.013 µg/mL (≈ 0.0263 µM).

Regarding `CC(C)c1ccc(C#Cc2ccc(CN(C)CC(O)(Cn3cncn3)c3ccc(F)cc3F)cc2)cc1` (stereo unspecified), the MIC80 with Candida albicans [1] turned out to be 0.013 µg/mL (≈ 0.026 µM); in the experiment with Candida albicans [2], 0.025 µg/mL (≈ 0.0499 µM); with Candida tropicalis it was 0.013 µg/mL (≈ 0.026 µM); with Candida parapsilosis, 0.05 µg/mL (≈ 0.0999 µM); with Nakaseomyces glabratus, 0.1 µg/mL (≈ 0.2 µM); in the experiment with Pichia kudriavzevii it was 0.2 µg/mL (≈ 0.4 µM). Also, the MIC80 in the experiment with Cryptococcus neoformans is 0.025 µg/mL (≈ 0.0499 µM).

As for `CN(Cc1ccc(C#Cc2ccc(Br)c(F)c2)cc1)CC(O)(Cn1cncn1)c1ccc(F)cc1F` (stereo unspecified), the MIC80 with Candida albicans [1] amounted to 0.006 µg/mL (≈ 0.0108 µM); with Candida albicans [2] it was 0.006 µg/mL (≈ 0.0108 µM); in the experiment on Candida tropicalis it was 0.006 µg/mL (≈ 0.0108 µM); in the experiment on Candida parapsilosis it was 0.006 µg/mL (≈ 0.0108 µM); with Nakaseomyces glabratus it was 0.03 µg/mL (≈ 0.054 µM); in the experiment with Pichia kudriavzevii, 0.01 µg/mL (≈ 0.018 µM). The MIC80 with Cryptococcus neoformans came to 0.025 µg/mL (≈ 0.045 µM).

As to `CN(Cc1ccc(C#Cc2ccc([N+](=O)[O-])cc2)cc1)CC(O)(Cn1cncn1)c1ccc(F)cc1F` (stereo unspecified), the MIC80 with Candida albicans [1] came to 0.006 µg/mL (≈ 0.0119 µM); in the experiment on Candida albicans [2], 0.006 µg/mL (≈ 0.0119 µM); in the experiment with Candida tropicalis, 0.006 µg/mL (≈ 0.0119 µM); in the experiment on Candida parapsilosis it was 0.006 µg/mL (≈ 0.0119 µM); in the experiment on Nakaseomyces glabratus, 0.03 µg/mL (≈ 0.0596 µM); in the experiment with Pichia kudriavzevii, 0.03 µg/mL (≈ 0.0596 µM). The MIC80 in the experiment with Cryptococcus neoformans was 0.013 µg/mL (≈ 0.0258 µM).

As to `CN(Cc1ccc(C#Cc2ccc(OCc3ccccc3)cc2)cc1)CC(O)(Cn1cncn1)c1ccc(F)cc1F` (stereo unspecified), the MIC80 was determined as 0.05 µg/mL (≈ 0.0886 µM) in the experiment on Candida albicans [1]; 0.013 µg/mL (≈ 0.023 µM) in the experiment with Candida albicans [2]; 0.05 µg/mL (≈ 0.0886 µM) with Candida tropicalis; 0.2 µg/mL (≈ 0.354 µM) with Candida parapsilosis; 0.1 µg/mL (≈ 0.177 µM) in the experiment with Nakaseomyces glabratus; 0.1 µg/mL (≈ 0.177 µM) in the experiment with Pichia kudriavzevii. The MIC80 with Cryptococcus neoformans was 0.1 µg/mL (≈ 0.177 µM).

With `CN(Cc1ccc(C#Cc2ccccc2I)cc1)CC(O)(Cn1cncn1)c1ccc(F)cc1F` (stereo unspecified), the MIC80 was 0.013 µg/mL (≈ 0.0222 µM) in the experiment with Candida albicans [1]; 0.006 µg/mL (≈ 0.0103 µM) in the experiment with Candida albicans [2]; 0.006 µg/mL (≈ 0.0103 µM) with Candida tropicalis; 0.006 µg/mL (≈ 0.0103 µM) in the experiment with Candida parapsilosis; 1.6 µg/mL (≈ 2.74 µM) with Nakaseomyces glabratus; 0.8 µg/mL (≈ 1.37 µM) with Pichia kudriavzevii. Moreover, in the experiment on Cryptococcus neoformans, the MIC80 was 0.025 µg/mL (≈ 0.0428 µM).

Regarding `CN(Cc1ccc(C#Cc2ccc(Cl)c(F)c2)cc1)CC(O)(Cn1cncn1)c1ccc(F)cc1F` (stereo unspecified), the MIC80 in the experiment with Candida albicans [1] came to 0.006 µg/mL (≈ 0.0117 µM); with Candida albicans [2] it was 0.006 µg/mL (≈ 0.0117 µM); in the experiment with Candida tropicalis, 0.006 µg/mL (≈ 0.0117 µM); in the experiment with Candida parapsilosis, 0.006 µg/mL (≈ 0.0117 µM); with Nakaseomyces glabratus it was 0.01 µg/mL (≈ 0.0196 µM); with Pichia kudriavzevii, 0.03 µg/mL (≈ 0.0587 µM). In addition, in the experiment on Cryptococcus neoformans, the MIC80 came out at 0.013 µg/mL (≈ 0.0254 µM).

Regarding `Cc1cccc(C#Cc2ccc(CN(C)CC(O)(Cn3cncn3)c3ccc(F)cc3F)cc2)c1` (stereo unspecified), the MIC80 with Candida albicans [1] was 0.013 µg/mL (≈ 0.0275 µM); in the experiment on Candida albicans [2], 0.013 µg/mL (≈ 0.0275 µM); in the experiment on Candida tropicalis, 0.025 µg/mL (≈ 0.0529 µM); in the experiment on Candida parapsilosis it was 0.013 µg/mL (≈ 0.0275 µM); in the experiment with Nakaseomyces glabratus, 0.4 µg/mL (≈ 0.846 µM); in the experiment on Pichia kudriavzevii it was 0.8 µg/mL (≈ 1.69 µM). Further, the MIC80 with Cryptococcus neoformans was found to be 0.025 µg/mL (≈ 0.0529 µM).

On to `CN(Cc1ccc(C#Cc2cc(F)c(Br)cc2F)cc1)CC(O)(Cn1cncn1)c1ccc(F)cc1F` (stereo unspecified), for which the MIC80 was 0.006 µg/mL (≈ 0.0105 µM) with Candida albicans [1]; 0.006 µg/mL (≈ 0.0105 µM) in the experiment on Candida albicans [2]; 0.006 µg/mL (≈ 0.0105 µM) in the experiment with Candida tropicalis; 0.006 µg/mL (≈ 0.0105 µM) in the experiment with Candida parapsilosis; 0.03 µg/mL (≈ 0.0523 µM) with Nakaseomyces glabratus; 0.03 µg/mL (≈ 0.0523 µM) in the experiment on Pichia kudriavzevii. Also, in the experiment with Cryptococcus neoformans, the MIC80 amounted to 0.025 µg/mL (≈ 0.0436 µM).
